Test results from patent US8586611B2 (priority 2005, dated 2013).
Where two headings read alike, the source gives them in different places.

What was measured:
Assay type in all cases: in vivo
Phytophthora infestans [1] = assay: whole plant or invertebrate; details: for Test D disease rating (100 = 100% disease control, 0 = no disease control): tomato late blight; for pest or weed control at 40 ppm: Phytophthora infestans, in Solanum lycopersicum, topical, 96 h, read-out: Test D disease rating (100 = 100% disease control, 0 = no disease control)
Plasmopara viticola = assay: Test B: grape downy mildew, spray 24 h after inoculation (disease rating, 100 = 100% disease control); details: for pest or weed control at 40 ppm: Plasmopara viticola, 144 h, tested at 40 ppm, read-out: Test B disease rating (100 = 100% disease control, 0 = no disease control)
Excerpt: (§1) The test compounds were first dissolved in acetone in an amount equal to 3% of the final volume and then suspended at the desired concentration (in ppm) in acetone and purified water (50/50 mix by volume) containing 250 ppm of the surfactant Trem® 014 (polyhydric alcohol esters). The resulting test suspensions were then used in tests A-E. Spraying a 200 ppm test suspension to the point of run-off on the test plants was the equivalent of a rate of 500 g/ha.
Grape seedlings were inoculated with a spore suspension of Plasmopara viticola (the causal agent of grape downy mildew) and incubated in a saturated atmosphere at 20° C. for 24 h. After a short drying period, the test suspension was sprayed to the point of run-off on the grape seedlings and then moved to a growth chamber at 20° C. for 5 days, after which the test units were placed back into a saturated atmosphere at 20° C. for 24 h. Upon removal, disease ratings were made.
(§2) Results for Tests A-F are given in Table A. In the table, a rating of 100 indicates 100% disease control and a rating of 0 indicates no disease control (relative to the controls). A dash (-) indicates no test results.

[2] = test system: Erysiphe graminis f. sp. tritici; assay: Test E: wheat powdery mildew, spray the day before inoculation (disease rating, 100 = 100% disease control); details: for pest or weed control at 40 ppm: Blumeria graminis, topical, 168 h, tested at 40 ppm, read-out: Test E disease rating (100 = 100% disease control, 0 = no disease control)
Excerpt: as §1
The test suspension was sprayed to the point of run-off on wheat seedlings. The following day the seedlings were inoculated with a spore dust of Erysiphe graminis f. sp. tritici, (the causal agent of wheat powdery mildew) and incubated in a growth chamber at 20° C. for 7 days, after which disease ratings were made.
as §2

Phytophthora infestans [3] = assay: whole plant or invertebrate; details: for Test C disease rating (100 = 100% disease control, 0 = no disease control): tomato late blight; for pest or weed control at 40 ppm: Phytophthora infestans, in Solanum lycopersicum, 144 h, read-out: Test C disease rating (100 = 100% disease control, 0 = no disease control)
[4] = spray 17 h after inoculation, compounds without asterisk (not 40 or 10 ppm)
[5] = spray 24 h after inoculation, compounds without asterisk (not 40 or 10 ppm)
[6] = spray the day before inoculation, compounds without asterisk (not 40 or 10 ppm)
[7] = spray the day before inoculation
[8] = sprayed 17 h after inoculation, unmarked compounds (no asterisk, not 40 or 10 ppm)
[9] = sprayed 24 h after inoculation, unmarked compounds (no asterisk, not 40 or 10 ppm)
[10] = sprayed the day before inoculation, 7 days at 20° C., unmarked compounds (no asterisk, not 40 or 10 ppm)
[11] = sprayed the day before inoculation, unmarked compounds (no asterisk, not 40 or 10 ppm)

Structure (SMILES)	Test D disease rating (100 = 100% disease control, 0 = no disease control) (Phytophthora infestans [1]; [4]) [%]	Test B disease rating (100 = 100% disease control, 0 = no disease control) (Plasmopara viticola; [5]) [%]	Test E disease rating (100 = 100% disease control, 0 = no disease control) [2, 6] [%]	Test C disease rating (100 = 100% disease control, 0 = no disease control) (Phytophthora infestans [3]; [6]) [%]	Test D disease rating (100 = 100% disease control, 0 = no disease control) (Phytophthora infestans [1]; [8])	Test B disease rating (100 = 100% disease control, 0 = no disease control) (Plasmopara viticola; [9])	Test E disease rating (100 = 100% disease control, 0 = no disease control) [2, 10]	Test C disease rating (100 = 100% disease control, 0 = no disease control) (Phytophthora infestans [3]; [11])	also measured
Cc1ccc(C)c(CC(=O)N2CCC(c3nc(C(=O)N(C)C4CCc5ccccc5C4)cs3)CC2)c1 (stereo not shown) [compound 98]	0	0	0	84					
Cc1ccc(C)c(CC(=O)N2CCC(c3nc(C(=O)N(C)C(c4ccccc4)C(C)C)cs3)CC2)c1 (stereo not shown) [compound 96]	49	98	0	100					
CC[C@H](c1ccccc1)N(C)C(=O)c1coc(C2CCN(C(=O)Cn3nc(C(F)(F)F)cc3C)CC2)n1 [Compound 152, N-methyl-2-[1-[[5-methyl-3-(trifluoromethyl)-1H-pyrazol-1-yl]acetyl]-4-piperidinyl]-N-[(1R)-1-phenylpropyl]-4-oxazolecarboxamide]									pest or weed control at 40 ppm (Phytophthora infestans [1]): 99%; pest or weed control at 40 ppm (Plasmopara viticola; spray 24 h after inoculation): 99%; pest or weed control at 40 ppm [2, 7]: 0%; pest or weed control at 40 ppm (Phytophthora infestans [3]): 100%
C[C@@H](NC(=O)c1csc(C2CCN(C(=O)Cc3cccc(Br)c3)CC2)n1)c1ccc(Cl)cc1 [compound 280]					0	0	0	24	
Cc1cc(C)n(CC(=O)N2CCC(c3nc(C(=O)N(C)[C@H](C)c4ccccc4)cs3)CC2)c1 [compound 101]	8	0	0	70					
Cc1cc(C(F)(F)F)nn1CC(=O)N1C(C)CN(c2nc(C(=O)N(C)[C@@H]3CCCc4ccccc43)cs2)CC1C (stereo partly shown) [compound 292]					93	71	0	100	
Cc1cc(C(F)(F)F)nn1CC(=O)N1CCC(c2nc(C(=O)N3CCC(C)CC3)cs2)CC1 [compound 308]					93	98	0	100	
Cc1cc(C(F)(F)F)nn1CC(=O)N1CCC(c2nc(C(=O)N(C)C(C)c3ccccc3Br)cs2)CC1 (stereo not shown) [compound 252]									Test D disease rating (100 = 100% disease control, 0 = no disease control) (Phytophthora infestans [1]; sprayed 17 h after inoculation, tested at 10 ppm (**)): 85; Test B disease rating (100 = 100% disease control, 0 = no disease control) (Plasmopara viticola; sprayed 24 h after inoculation, tested at 10 ppm (**)): 99; Test E disease rating (100 = 100% disease control, 0 = no disease control) ([2]; sprayed the day before inoculation, 7 days at 20° C., tested at 10 ppm (**)): 19; Test C disease rating (100 = 100% disease control, 0 = no disease control) (Phytophthora infestans [3]; sprayed the day before inoculation, tested at 10 ppm (**)): 99
CC[C@H](c1ccccc1)N(C)C(=O)c1csc(C2CCN(C(=O)Cc3ccccc3OC)CC2)n1 [compound 115]	99	100	0	100					
Cc1cc(C(F)(F)F)nn1CC(=O)N1CCN(c2nc(C(=O)N(C)[C@@H]3CCCc4ccccc43)cs2)CC1 [Compound 220, N-methyl-2-[4-[[5-methyl-3-(trifluoromethyl)-1H-pyrazol-1-yl]acetyl]-1-piperazinyl]-N-[(1R)-1,2,3,4-tetrahydro-1-naphthalenyl]-4-thiazolecarboxamide]									pest or weed control at 40 ppm (Phytophthora infestans [1]): 98%; pest or weed control at 40 ppm (Plasmopara viticola; spray 24 h after inoculation): 95%; pest or weed control at 40 ppm [2, 7]: 0%; pest or weed control at 40 ppm (Phytophthora infestans [3]): 100%
